Data published in patent US5650415A, “Quinoline compounds” (Sugen, Inc., priority 1995, dated 1997).

How the values were obtained:
[1] = target: T1, PDGFR (Homo sapiens, UniProt P09619); assay: PDGF-R Cellular Assay (ELISA); assay type: cell-based; details: U1242 human glioblastoma cells
T1 construct: endogenous in cells; host or cells: U1242 MG human glioblastoma cells
Source text: (§1) The following examples illustrates the ability of the exemplary compounds to inhibit receptor tyrosine kinases, such as HER2 and/or EGFR. The following target cells were used for cellular kinase assays: NIH3T3 clone C7 (Honegger et al., supra) engineered to over-express human EGF receptor; NIH3T3 cells engineered to over-express a chimeric receptor containing the EGFR extracellular domain and the HER2 intracellular kinase domain; the human mammary carcinoma line BT474 (ATCC HTB2) expressing HER2; and the human glioblastoma line U1242 that expresses PDGFR-beta. Growth assays were carried out using human mammary epithelial SKBR3 (ATCC HTB30) cells (SKBR3 cells over-express HER2), SKOV3 (AT(D(D HTB77) human ovarian cancer cell line (SKOV3 cells also over-express HER2), A431 cells (A431 cells over-express EGFR) MCF7 human breast carcinoma cells, MCF7 cells overexpressing the HER2 kinase (MCF7-HER2), NIH3T3 cells, and NIH3T3 cells overexpressing the HER2 kinase (3T3-HER2.
The PDGF cellular kinase assay was carried out as follows: cells are lysed in 0.2M Hepes, 0.15M NaCl, 10% VN glycerol, 0.04% Triton X-100, 5 mM EDTA, 5 mM Na+ vanadate and 2 mM Na+ pyrophosphate; cell lysates are then added to an ELISA plate coated with an anti-PDGF receptor antibody (Genzyme); ELISA plates are coated at 0.5 μg of antibody/well in 150 μl of PBS for 18 hours at 4° C. prior to the addition of the lysate; the lysate is incubated in the coated plates for 1 hour and then washed four times in TBST (35 mM Tris-HCl pH 7.0, 0.15M NaCl, 0.1% Triton X100); anti-phosphotyrosine antibody (100 μl in PBS) is added and the mixture is incubated for 30 minutes at room temperature; the wells were then washed four times in TBST, a secondary antibody conjugated to POD (TAGO) is added to each well, and the treated well are incubated for 30 minutes at room temperature; the wells are then washed four times in TBST, ABTS/H2 O2 solution is added to each well and the wells are incubated for two minutes; absorbance is then measured at 410 nm.
U1242 MG cells were plated in 96-well plates at a concentration of 5×10^4 cells/well in cultured media containing 0.5% FBS. The cells were incubated for 24 hours. The cells were then treated with a particular compound for 2 hours followed by the addition of 100 ng/ml PDGF-BB and incubation for 10 minutes.
Cells were lysed in 0.2M Hepes, 0.15M NaCl, 10% VN glycerol, 0.04% Triton X-100, 5 mM EDTA, 5 mM Na^+ vanadate and 2 mM Na^+ pyrophosphate. Cell lysates were then added to an ELISA plate coated with an anti-PDGF receptor antibody (Genzyme). ELISA plates were coated at 0.5 μg of antibody/well in 150 μl of PBS for 18 hours at 4° C. prior to the addition of the lysate.
The lysate was incubated in the coated plates for 1 hour and then washed four times in TBST (35 mM Tris-HCl pH 7.0, 0.15M NaCl, 0.1% Triton X-100). Anti-phosphotyrosine antibody (100 μl in PBS) was added and the mixture was incubated for 30 minutes at room temperature. The wells were then washed four times in TBST, a secondary antibody conjugated to POD (TAGO) was added to each well, and the treated well were incubated for 30 minutes at room temperature. The wells were then washed four times in TBST, ABTS/H2 O2 solution was added to each well and the wells were incubated for two minutes. Absorbance was then measured at 410 nm.

[2] = target: T2, EGFR (Homo sapiens, UniProt P00533); assay: EGFR Whole Cell Kinase Assay (ELISA); assay type: cell-based; details: NIH3T3 clone C7 over-expressing human EGF receptor
T2 construct: expressed in transfected cells; host or cells: NIH3T3 clone C7 (EGFR/C7)
Source text: as §1
EGFR Whole Cell Kinase Assay
EGFR kinase activity (EGFR-3T3 assay) in whole cells was measured as described below:
A. Coat ELISA plates (Corning, 96 well, Cat. #25805-96) with 05-101 antibody at 0.5 μg per well in PBS, 150 μl final volume/well, and store overnight at 4.sunburst. C. Coated plates are good for up to 10 days when stored at 4.sunburst. C.
B. On day of use, remove coating buffer and replace with blocking buffer (5% Carnation Instant NonFat Dry Milk in PBS). Incubate the plate, shaking, at room temperature (about 23.sunburst. C. to 25.sunburst. C.) for 30 minutes. Just prior to use, remove blocking buffer and wash plate 4 times with TBST buffer.
A. EGFR/C7 cell line (Honegger, et al., supra) can be used for this assay.
B. Choose dishes having 80-90% confluence for the experiment. Trypsinize cells and stop reaction by adding 10% CS DMEM medium. Suspend cells in DMEM medium (10% CS DMEM medium) and centrifuge once at 1000 rpm, and once at room temperature for 5 minutes.
C. Resuspend cells in seeding medium (DMEM, 0.5% bovine serum), and count the cells using trypan blue. Viability above 90% is acceptable. Seed cells in DMEM medium (0.5% bovine serum) at a density of 10,000 cells per well, 100 μl per well, in a 96 well microtiter plate. Incubate seeded cells in 5% CO2 at 37.sunburst. C. for about 40 hours.
A. Check seeded cells for contamination using an inverted microscope. Dilute drug stock (10 mg/ml in DMSO) 1:10 in DMEM medium, then transfer 5 μl to a test well for a final drug dilution of 1:200 and a final DMSO concentration of […]. Control wells receive DMSO alone. Incubate in 5% CO2 at 37° C. for one hour.
B. Prepare EGF ligand: dilute stock EGF in DMEM so that upon transfer of 10 μl dilute EGF (1:12 dilution), 25 nM final concentration is attained.
C. Prepare fresh HNTG* sufficient for 100 μl per well; and place on ice.
D. After two hours incubation with drug, add prepared EGF ligand to cells, 10 μl per well, to yield a final concentration of 25 nM. Control wells receive DMEM alone. Incubate, shaking, at room temperature, for 5 minutes.
E. Remove drug, EGF, and DMEM. Wash cells twice with PBS. Transfer HNTG* to cells, 100 μl per well. Place on ice for 5 minutes. Meanwhile, remove blocking buffer from other ELISA plate and wash with TBST as described above.
F. With a pipette tip securely fitted to a micropipettor, scrape cells from plate and homogenize cell material by repeatedly aspirating and dispensing the HNTG* lysis buffer. Transfer lysate to a coated, blocked, and washed ELISA plate. Incubate shaking at room temperature for one hour.
G. Remove lysate and wash 4 times with TBST. Transfer freshly diluted anti-Ptyr antibody to ELISA plate at 100 μl per well. Incubate shaking at room temperature for 30 minutes in the presence of the anti-Ptyr antiserum (1:3000 dilution in TBST).
H. Remove the anti-Ptyr antibody and wash 4 times with TBST. […]

T1 sequence (P09619 33-1106): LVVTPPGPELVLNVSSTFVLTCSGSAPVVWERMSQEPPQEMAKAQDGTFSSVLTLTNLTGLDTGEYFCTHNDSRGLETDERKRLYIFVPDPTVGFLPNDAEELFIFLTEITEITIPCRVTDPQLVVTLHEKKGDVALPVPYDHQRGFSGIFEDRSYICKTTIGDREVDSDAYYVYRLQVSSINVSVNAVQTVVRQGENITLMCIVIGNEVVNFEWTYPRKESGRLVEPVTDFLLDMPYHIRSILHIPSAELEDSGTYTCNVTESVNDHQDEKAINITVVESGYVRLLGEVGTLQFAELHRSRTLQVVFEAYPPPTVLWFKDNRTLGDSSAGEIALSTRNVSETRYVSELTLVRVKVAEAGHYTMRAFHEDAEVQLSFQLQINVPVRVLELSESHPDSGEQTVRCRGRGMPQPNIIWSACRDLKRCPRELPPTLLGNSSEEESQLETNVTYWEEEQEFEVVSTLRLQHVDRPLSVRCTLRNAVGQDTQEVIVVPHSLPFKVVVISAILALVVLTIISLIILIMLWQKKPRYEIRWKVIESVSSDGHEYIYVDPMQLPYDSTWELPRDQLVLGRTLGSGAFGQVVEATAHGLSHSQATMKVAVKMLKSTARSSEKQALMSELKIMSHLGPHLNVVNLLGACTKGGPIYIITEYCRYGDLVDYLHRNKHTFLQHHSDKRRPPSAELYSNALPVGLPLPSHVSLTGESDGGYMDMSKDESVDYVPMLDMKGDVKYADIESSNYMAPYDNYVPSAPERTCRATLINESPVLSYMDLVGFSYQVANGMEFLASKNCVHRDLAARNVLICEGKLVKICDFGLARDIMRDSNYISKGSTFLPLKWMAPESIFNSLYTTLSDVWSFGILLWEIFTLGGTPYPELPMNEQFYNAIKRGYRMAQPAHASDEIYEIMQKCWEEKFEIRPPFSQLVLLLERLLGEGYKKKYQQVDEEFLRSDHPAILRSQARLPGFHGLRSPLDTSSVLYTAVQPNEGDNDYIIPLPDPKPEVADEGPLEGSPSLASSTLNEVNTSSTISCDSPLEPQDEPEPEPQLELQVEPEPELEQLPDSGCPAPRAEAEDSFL
T2 sequence (P00533 25-1210): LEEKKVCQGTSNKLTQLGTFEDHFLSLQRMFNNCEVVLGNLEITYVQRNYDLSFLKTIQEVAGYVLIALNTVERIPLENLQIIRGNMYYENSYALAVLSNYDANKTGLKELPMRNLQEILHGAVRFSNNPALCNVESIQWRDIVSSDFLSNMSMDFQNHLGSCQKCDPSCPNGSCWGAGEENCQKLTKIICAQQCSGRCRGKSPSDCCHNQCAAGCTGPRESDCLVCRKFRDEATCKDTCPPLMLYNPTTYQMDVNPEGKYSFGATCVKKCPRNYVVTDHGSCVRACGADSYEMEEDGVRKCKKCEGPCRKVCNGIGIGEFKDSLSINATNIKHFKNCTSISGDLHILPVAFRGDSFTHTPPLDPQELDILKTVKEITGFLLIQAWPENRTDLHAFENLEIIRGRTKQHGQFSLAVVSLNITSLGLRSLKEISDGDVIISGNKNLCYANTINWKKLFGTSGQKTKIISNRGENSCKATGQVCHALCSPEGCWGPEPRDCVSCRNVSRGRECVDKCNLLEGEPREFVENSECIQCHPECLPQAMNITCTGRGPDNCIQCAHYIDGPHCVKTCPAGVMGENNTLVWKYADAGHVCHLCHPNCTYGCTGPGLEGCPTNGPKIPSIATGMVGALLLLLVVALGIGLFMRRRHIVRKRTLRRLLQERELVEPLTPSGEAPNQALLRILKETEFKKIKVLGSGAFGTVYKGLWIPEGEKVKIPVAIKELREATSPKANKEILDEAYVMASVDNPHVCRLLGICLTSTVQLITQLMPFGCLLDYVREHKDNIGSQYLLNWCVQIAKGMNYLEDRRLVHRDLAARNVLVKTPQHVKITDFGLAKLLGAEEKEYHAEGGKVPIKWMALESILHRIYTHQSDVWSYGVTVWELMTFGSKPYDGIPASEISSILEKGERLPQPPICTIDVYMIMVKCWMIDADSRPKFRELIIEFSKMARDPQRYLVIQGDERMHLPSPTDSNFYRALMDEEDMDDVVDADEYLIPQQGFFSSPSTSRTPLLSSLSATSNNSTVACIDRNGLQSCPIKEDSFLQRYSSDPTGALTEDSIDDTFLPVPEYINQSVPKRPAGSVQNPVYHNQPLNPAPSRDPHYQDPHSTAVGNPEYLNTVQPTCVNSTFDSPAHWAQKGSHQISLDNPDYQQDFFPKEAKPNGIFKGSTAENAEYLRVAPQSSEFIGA

IC50 [1] [µM]	IC50 [2] [µM]	SMILES
> 100	> 100	CCOC(=O)c1cnc2ccc(C(F)(F)F)cc2c1Nc1cccc(Br)c1 [Compound A716, 4-(3-Bromophenylamino)-3-ethoxycarbonyl-6-trifluoromethylquinoline]
> 50	> 100	CCOC(=O)c1cnc2c(F)ccc(F)c2c1Sc1ccc(Cl)cc1 [Compound A732, 4-(4-Chlorophenylmercapto)-5,8-difluoro-3-ethoxycarbonylquinoline]
> 100	> 100	CCOC(=O)c1cnc2ccc(C(F)(F)F)cc2c1Nc1cccc(C(F)(F)F)c1 [Compound A721, 3-Ethoxycarbonyl-4-(3-trifluoromethylphenylamino)-6-trifluoromethylquinoline]
> 50	> 100	CCOC(=O)c1cnc2c(F)ccc(F)c2c1Sc1cccc(C(F)(F)F)c1 [Compound A713, 3-Ethoxycarbonyl-5,8-difluoro-4-(3-trifluoromethylphenylmercapto)quinoline]
> 100	> 100	CCOC(=O)c1cnc2ccc(C(F)(F)F)cc2c1Nc1ccc(C(F)(F)F)cc1 [Compound A722, 3-Ethoxycarbonyl-4-(4-trifluoromethylphenylamino)-6-trifluoromethylquinoline]
> 50	> 50	CCOC(=O)c1cnc2c(F)cc(F)cc2c1Sc1ccc(Cl)cc1 [Compound A730, 4-(4-Chlorophenylmercapto)-6,8-difluoro-3-ethoxycarbonylquinoline]
> 50	> 50	CCOC(=O)c1cnc2cc(Cl)c(F)cc2c1Sc1ccc(Cl)cc1 [Compound A731, 7-Chloro-4-(4-chlorophenylmercapto)-6-fluoro-3-ethoxycarbonylquinoline]
